Reference: ChEMBL document CHEMBL1146400, “10-Epi-olguine from Rabdosia ternifolia” (1997)
≈ marks a conversion by molar mass, not a printed value.

How the values were obtained:
Assay type in all cases: functional
Conditions in all cases: read-out: ED50 (the source's name)
LNCaP = experiment: Cytotoxicity against human LNCAP cells
[1] = Cytotoxicity against human KBVIN cells in absence of vinblastine
Col2 = experiment: Cytotoxicity against human Col2 cells
[2] = Cytotoxicity against human BC1 cells
KB = experiment: Cytotoxicity against human KB cells
Lu1 = experiment: Cytotoxicity against human Lu1 cells
[3] = Cytotoxicity against human KBVIN cells in presence of vinblastine

CC(=O)O[C@@H](C)[C@@H](/C=C/[C@@H]1O[C@@H]1[C@@H]1OC(=O)C=C[C@@H]1OC(C)=O)OC(C)=O
EC50 (LNCaP): 1.2 µg/mL (≈ 3.14 µM)
EC50 [1]: 2.1 µg/mL (≈ 5.49 µM)
EC50 (Col2): 2.1 µg/mL (≈ 5.49 µM)
EC50 [2]: 1.8 µg/mL (≈ 4.71 µM)
EC50 (KB): 1.8 µg/mL (≈ 4.71 µM)
EC50 (Lu1): 4.8 µg/mL (≈ 12.6 µM)
EC50 [3]: 2.2 µg/mL
